# Measured values: US12043632B2, “6-heteroaryloxy benzimidazoles and azabenzimidazoles as JAK2 inhibitors” (Ajax Therapeutics, Inc., priority 2020, dated 2024)
# Biological target: T1, JAK2 (JH1domain-catalytic, Y1007F,Y1008F) kinase (Homo sapiens, UniProt O60674, Y1007F/Y1008F)
# T1 construct: JAK2 (JH1domain-catalytic, Y1007F,Y1008F) kinase was expressed as N-terminal fusion; made in house; host or cells: transiently transfected HEK293 cells
# Experiment: JAK2 JH1 Domain Binding Assay
# Details: qPCR readout
# T1 sequence (O60674 849-1124 Y1007F/Y1008F limits assumed): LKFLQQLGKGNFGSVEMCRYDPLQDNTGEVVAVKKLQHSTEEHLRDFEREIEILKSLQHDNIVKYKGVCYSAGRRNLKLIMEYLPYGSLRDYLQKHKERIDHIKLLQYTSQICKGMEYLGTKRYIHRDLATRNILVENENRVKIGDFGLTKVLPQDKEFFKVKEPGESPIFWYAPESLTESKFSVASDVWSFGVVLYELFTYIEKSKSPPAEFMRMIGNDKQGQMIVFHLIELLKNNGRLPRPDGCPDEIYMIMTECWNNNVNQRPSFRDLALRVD
row,Kd [nM],Structure (SMILES)
1,10 to 50,"Cn1c(Nc2cc(C(C)(C)C)n([C@H]3COC[C@@H]3O)n2)nc2ncc(Oc3cnn4ccnc4c3)c(Cl)c21 (single isomer, unassigned) [Example I-23]"
2,50 to 1000,"Cn1c(Nc2cc(C(C)(C)C)n([C@@H]3COC[C@H]3O)n2)nc2ncc(Oc3cnn4ccnc4c3)c(Cl)c21 (single isomer, unassigned) [Example I-24]"
3,< 10,"CC(O)Cn1nc(Nc2nc3ncc(Oc4cnn5ccncc45)c(Cl)c3n2C)cc1C(C)(C)C (single isomer, unassigned) [Example I-37]"
4,< 10,"C[C@@H](O)Cn1nc(Nc2nc3ncc(Oc4cnn5ccncc45)c(Cl)c3n2C)cc1C(C)(C)C (single isomer, unassigned) [Example I-38]"
5,< 10,"Cn1c(Nc2cc(C(C)(C)C)n([C@@H]3CCOC34CC4)n2)nc2ncc(Oc3cnn4ccncc34)c(Cl)c21 (single isomer, unassigned) [Example I-41-a]"
6,< 10,"Cn1c(Nc2cc(C(C)(C)C)n([C@@H]3CCOC34CC4)n2)nc2ncc(Oc3cnn4ccncc34)c(Cl)c21 (single isomer, unassigned) [Example I-41-b]"
7,< 10,"Cn1c(Nc2cc(C(C)(C)C)n(C3COCC3O)n2)nc2ncc(Oc3cnn4ccncc34)c(Cl)c21 (single isomer, unassigned) [Example I-47]"
8,< 10,"Cn1c(Nc2cc(C(C)(C)C)n(C3COCC3O)n2)nc2ncc(Oc3cnn4ccncc34)c(Cl)c21 (single isomer, unassigned) [Example I-48]"
9,10 to 50,"Cn1c(Nc2nc([C@H]3CCOC3)c(C(C)(C)C)s2)nc2ncc(Oc3cnn4ccnc4c3)c(Cl)c21 (single isomer, unassigned) [Example I-56-a]"
10,10 to 50,"Cn1c(Nc2nc([C@@H]3CCOC3)c(C(C)(C)C)s2)nc2ncc(Oc3cnn4ccnc4c3)c(Cl)c21 (single isomer, unassigned) [Example I-56-b]"
11,10 to 50,"Cn1c(Nc2cc(C(C)(C)C)n([C@H]3CCC[C@H]3O)n2)nc2ncc(Oc3cnn4ccncc34)c(Cl)c21 (single isomer, unassigned) [Example I-60-a]"
12,< 10,"Cn1c(Nc2cc(C(C)(C)C)n([C@@H]3CCC[C@@H]3O)n2)nc2ncc(Oc3cnn4ccncc34)c(Cl)c21 (single isomer, unassigned) [Example I-60-b]"
13,50 to 1000,"COc1c(Oc2cnn3ccncc23)cnc2nc(Nc3cc(C(C)(C)C)n([C@H]4CCC[C@H]4O)n3)n(C)c12 (single isomer, unassigned) [Example I-69-a]"
14,10 to 50,"COc1c(Oc2cnn3ccncc23)cnc2nc(Nc3cc(C(C)(C)C)n([C@@H]4CCC[C@@H]4O)n3)n(C)c12 (single isomer, unassigned) [Example I-69-b]"
15,50 to 1000,"Cn1c(Nc2cc(C(C)(C)C)n([C@H]3CCC[C@H]3O)n2)nc2ncc(Oc3cnn4ccncc34)c(C(F)F)c21 (single isomer, unassigned) [Example I-71-a]"
16,10 to 50,"Cn1c(Nc2cc(C(C)(C)C)n([C@@H]3CCC[C@@H]3O)n2)nc2ncc(Oc3cnn4ccncc34)c(C(F)F)c21 (single isomer, unassigned) [Example I-71-b]"
17,< 10,"COc1c(Oc2cnn3ccncc23)cnc2nc(Nc3cc(C4CC4)cn([C@@H]4CCCOC4)c3=O)n(C)c12 (single isomer, unassigned) [Example I-72-a]"
18,< 10,"COc1c(Oc2cnn3ccncc23)cnc2nc(Nc3cc(C4CC4)cn([C@H]4CCCOC4)c3=O)n(C)c12 (single isomer, unassigned) [Example I-72-b]"
19,< 10,"Cn1c(Nc2cc(C3CC3)cn([C@H]3CCCOC3)c2=O)nc2ncc(Oc3cnn4ccncc34)c(Cl)c21 (single isomer, unassigned) [Example I-73-a]"
20,< 10,"Cn1c(Nc2cc(C3CC3)cn([C@@H]3CCCOC3)c2=O)nc2ncc(Oc3cnn4ccncc34)c(Cl)c21 (single isomer, unassigned) [Example I-73-b]"
21,10 to 50,"Cn1c(Nc2cc(C(C)(C)C)n([C@H]3COC[C@@H]3O)n2)nc2ncc(Oc3cnc4cnc(C5CC5)n4c3)c(Cl)c21 (single isomer, unassigned) [Example I-76-a]"
22,10 to 50,"Cn1c(Nc2cc(C(C)(C)C)n([C@@H]3COC[C@H]3O)n2)nc2ncc(Oc3cnc4cnc(C5CC5)n4c3)c(Cl)c21 (single isomer, unassigned) [Example I-76-b]"
23,< 10,"C[C@H](CO)Cn1cc(C2CC2)cc(Nc2nc3ncc(Oc4cnn5ccncc45)c(Cl)c3n2C)c1=O (single isomer, unassigned) [Example I-81-a]"
24,< 10,"C[C@@H](CO)Cn1cc(C2CC2)cc(Nc2nc3ncc(Oc4cnn5ccncc45)c(Cl)c3n2C)c1=O (single isomer, unassigned) [Example I-81-b]"
25,10 to 50,"Cn1c(Nc2cc(C(C)(C)C)n([C@H]3COC[C@@H]3O)n2)nc2ncc(Oc3cnc4cnc(C5CC5)n4c3)c(C(F)F)c21 (single isomer, unassigned) [Example I-93-a]"

row,Kd [nM],Structure (SMILES)
1,50 to 1000,"Cn1c(Nc2cc(C(C)(C)C)n([C@@H]3COC[C@H]3O)n2)nc2ncc(Oc3cnc4cnc(C5CC5)n4c3)c(C(F)F)c21 (single isomer, unassigned) [Example I-93-b]"
2,< 10,"Cn1c(Nc2cc(C3CC3)cn([C@H]3CC[C@@H]3O)c2=O)nc2ncc(Oc3cnn4ccncc34)c(Cl)c21 (single isomer, unassigned) [Example I-95-a]"
3,< 10,"Cn1c(Nc2cc(C3CC3)cn([C@@H]3CC[C@H]3O)c2=O)nc2ncc(Oc3cnn4ccncc34)c(Cl)c21 (single isomer, unassigned) [Example I-95-b]"
4,< 10,"Cn1c(Nc2cc(C3CC3)cn([C@@H]3CC[C@@H]3O)c2=O)nc2ncc(Oc3cnn4ccncc34)c(Cl)c21 (single isomer, unassigned) [Example I-98-a]"
5,< 10,"Cn1c(Nc2cc(C3CC3)cn([C@H]3CC[C@H]3O)c2=O)nc2ncc(Oc3cnn4ccncc34)c(Cl)c21 (single isomer, unassigned) [Example I-98-b]"
6,< 10,"Cn1c(Nc2cc(C3CC3)cn([C@H]3CC[C@@H]3O)c2=O)nc2ncc(Oc3cnn4ccccc34)c(Cl)c21 (single isomer, unassigned) [Example I-99-a]"
7,< 10,"Cn1c(Nc2cc(C3CC3)cn([C@@H]3CC[C@H]3O)c2=O)nc2ncc(Oc3cnn4ccccc34)c(Cl)c21 (single isomer, unassigned) [Example I-99-b]"
8,< 10,"COc1c(Oc2cnn3ccccc23)cnc2nc(Nc3cc(C4CC4)cn([C@H]4CCCOC4)c3=O)n(C)c12 (single isomer, unassigned) [Example I-101-a]"
9,< 10,"COc1c(Oc2cnn3ccccc23)cnc2nc(Nc3cc(C4CC4)cn([C@@H]4CCCOC4)c3=O)n(C)c12 (single isomer, unassigned) [Example I-101-b]"
10,< 10,"COc1c(Oc2cnn3ccncc23)cnc2nc(Nc3cc(C4CC4)cn([C@@H]4CC[C@@H]4O)c3=O)n(C)c12 (single isomer, unassigned) [Example I-104-a]"
11,< 10,"COc1c(Oc2cnn3ccncc23)cnc2nc(Nc3cc(C4CC4)cn([C@H]4CC[C@H]4O)c3=O)n(C)c12 (single isomer, unassigned) [Example I-104-b]"
12,< 10,"Cn1c(Nc2cc(C(F)(F)F)cn([C@H]3CC[C@@H]3O)c2=O)nc2ncc(Oc3cnn4ccncc34)c(Cl)c21 (single isomer, unassigned) [Example I-105-a]"
13,< 10,"Cn1c(Nc2cc(C(F)(F)F)cn([C@@H]3CC[C@H]3O)c2=O)nc2ncc(Oc3cnn4ccncc34)c(Cl)c21 (single isomer, unassigned) [Example I-105-b]"
14,< 10,"Cn1c(Nc2cc(C(F)(F)F)cn([C@@H]3CCCOC3)c2=O)nc2ncc(Oc3cnn4ccncc34)c(Cl)c21 (single isomer, unassigned) [Example I-107-a]"
15,< 10,"Cn1c(Nc2cc(C(F)(F)F)cn([C@H]3CCCOC3)c2=O)nc2ncc(Oc3cnn4ccncc34)c(Cl)c21 (single isomer, unassigned) [Example I-107-b]"
16,< 10,"COc1c(Oc2cnn3ccncc23)cnc2nc(Nc3cc(C4CC4)cn([C@H]4CC[C@@H]4O)c3=O)n(C)c12 (single isomer, unassigned) [Example I-110-a]"
17,10 to 50,"COc1c(Oc2cnn3ccncc23)cnc2nc(Nc3cc(C4CC4)cn([C@@H]4CC[C@H]4O)c3=O)n(C)c12 (single isomer, unassigned) [Example I-110-b]"
18,10 to 50,"COc1c(Oc2cnn3ccncc23)cnc2nc(Nc3cc(C(F)(F)F)cn([C@H]4CC[C@@H]4O)c3=O)n(C)c12 (single isomer, unassigned) [Example I-113-a]"
19,10 to 50,"COc1c(Oc2cnn3ccncc23)cnc2nc(Nc3cc(C(F)(F)F)cn([C@@H]4CC[C@H]4O)c3=O)n(C)c12 (single isomer, unassigned) [Example I-113-b]"
20,< 10,"Cn1c(Nc2cc(C3CC3)cn([C@@H]3CC[C@@H]3O)c2=O)nc2ncc(Oc3cnn4ccccc34)c(Cl)c21 (single isomer, unassigned) [Example I-114-a]"
21,< 10,"Cn1c(Nc2cc(C3CC3)cn([C@H]3CC[C@H]3O)c2=O)nc2ncc(Oc3cnn4ccccc34)c(Cl)c21 (single isomer, unassigned) [Example I-114-b]"
22,< 10,"Cn1c(Nc2cc(C(F)(F)F)cn([C@@H]3CC[C@@H]3O)c2=O)nc2ncc(Oc3cnn4ccncc34)c(Cl)c21 (single isomer, unassigned) [Example I-119-a]"
23,< 10,"Cn1c(Nc2cc(C(F)(F)F)cn([C@H]3CC[C@H]3O)c2=O)nc2ncc(Oc3cnn4ccncc34)c(Cl)c21 (single isomer, unassigned) [Example I-119-b]"
24,< 10,"COc1c(Oc2cnn3ccncc23)cnc2nc(Nc3cc(C4CC4)cn([C@@H](C)CC#N)c3=O)n(C)c12 (single isomer, unassigned) [Example I-121-a]"
25,< 10,"COc1c(Oc2cnn3ccncc23)cnc2nc(Nc3cc(C4CC4)cn([C@H](C)CC#N)c3=O)n(C)c12 (single isomer, unassigned) [Example I-121-b]"
